Data set [1] can be described thus: Solubility of compound 1 (previously determined). The class given is physicochemical. An excerpt: (§1) Compound 1 has the following previously determined characteristics: […]
Data set [2] can be described thus: pKa of compound 1 (previously determined). The class given is physicochemical.
Text: as §1

The nature of data set [3]: log P of compound 1 (previously determined). It counts as physicochemical.
Text: as §1

Data set [4] can be described thus: Hygroscopicity of compound 1 free base (previously determined). The class given is physicochemical. As to conditions: at 70% relative humidity (RH). An excerpt:
Compound 1 has the following previously determined characteristics:
(vii) hygroscopicity (for free base): 0.09% at 70% relative humidity (RH);

A short description of data set [5]: Fed-fasted pharmacokinetics and relative oral bioavailability of compound 1 HCl salt, micronized formulation (previously determined). Particulars: human, in vivo. An excerpt: The fed-fasted pharmacokinetic data were collected using a “normal fat” meal consisting of toast with 1 pat of butter, a banana, 2% milk, apple juice, and Honey Nut Cheerios®, where the meal has about 501 calories with 99 calories from fat, 346 calories from carbohydrates, and 56 calories from protein; and using a “high fat” meal consisting of 2 eggs fried in butter, 2 strips of bacon, 2 slices of toast with butter, 4 ounces of hash brown potatoes and 8 ounces of whole milk, where the meal has about 1,000 calories with 500-600 calories from fat, 250 calories from carbohydrates, and 150 calories from protein.
The relative oral bioavailability of compound 1 (HCl salt) has been previously determined in various fed and fasted states in a micronized formulation. This micronized formulation included the following for a 100 mg dose in a #1 HPMC (white opaque) capsule: compound 1 HCl micronized (100.00 mg), Lactose Fast Flo® Fast Flo® composed of a spray-dried mixture of crystalline and amorphous lactose monohydrate (184.80 mg); sodium starch glycolate (19.20 mg); polysorbate 80 (14.40 mg); purified water (used as the granulating fluid and was removed during processing) (QS); and magnesium stearate (1.60 mg), where the resultant fill weight was 320.00 mg. […]

Data set [6] in a line: Modulated differential scanning calorimetry (MDSC), glass transition temperature Tg. The class given is physicochemical. Particulars: compound 1 alone. The procedure:
FIG. 6 is a graph showing modulated differential scanning calorimetry measurements at ambient relative humidity for solid dispersion formulations having 20% (w/w) loading of compound 1. Glass transition temperature Tg is shown for formulations of carboxymethylethyl cellulose (CMEC), hydroxypropylmethyl cellulose acetate succinate M grade (HPMCAS-M), cellulose acetate phthalate (CAP), and polyvinyl acetate phthalate (PVAP).
Various solid dispersion formulations were tested using modulated differential scanning calorimetry (MDSC). MDSC measurements provide glass transition temperature Tg values, which can be used to understand the molecular mobility of a drug within the dispersion. […] Data for Eudragit® L 100 are not shown, but Tg is likely greater than 150° C. due to polymer degradation above this temperature. All recorded Tg values were at least twice as high as compound 1 alone (Tg=41.6° C.). Lower Tg values could indicate potential stability issues over long periods of time or at an increased temperature or pressure. Table 3 provides Tg values for CAP (formulation 1), HPMCAS-M (formulation 2), and PVAP.

Data set [7] in a line: Supersaturation dissolution kinetics of hot melt extrusion formulations. The class given is physicochemical. Particulars: processing conditions na. The procedure: Supersaturation dissolution kinetics provides valuable information regarding the performance of different matrix polymers in combination with an active agent. In particular, such studies could provide insight on which formulations could provide enhanced bioavailability. Accordingly, dissolution studies were conducted on the following three HME formulations: Kollidon® VA 64 (Copovidone), HPMCAS-MF (Hypromellose Acetate Succinate), and Kollidon® K30 (Povidone, PVP).
Briefly, the target concentration of the dissolution sample solution was 1.1 mg/mL, or ten times the estimated sink dissolution sample solution concentration produced by a 100 mg dose when dissolved in 900 mL of dissolution media. Triplicate preparations of about 10 mg of extrudate (2 mg of compound 1 in the three HME formulations) were transferred into separate micro-centrifuge tubes. About 1.8 mL of dissolution media was preheated to 37° C. and added to each tube, where the tube was then placed into an incubator shaker at 37° C. and 250 rpm. Samples were centrifuged at 13,000 rpm for one minute, and 25 μL aliquots of the clear supernatant were transferred into HPLC vials and diluted with 1.0 mL of HPLC mobile phase (30%/70% of pH 6.6 buffer/acetonitrile) at 10′ (minutes), 20′, 40′, 1 hr (hour), 1.5 hrs, 2 hrs, 4 hrs, and 24 hrs. An isocratic HPLC method was applied for quantitation against a five point calibration curve in the range of 5.5-220 μg/mL (C18, 5 μm, 4.6×150 mm column, and UV 216 nm detection). The HPLC sample solution target concentration was 27.1 μg/mL.

Here are results for 1 compound from patent US8409560B2, “Solid dispersion formulations and methods of use thereof” (Zalicus Pharmaceuticals Ltd., priority 2011, dated 2013).

In brackets after ≈: the same amount, converted by molar mass. Read-outs that look alike come from different tables or passages of the source. A value given as a limit tells only on which side of the number the result lay.

In general, solubility refers to how much of the substance goes into solution per volume. As usually defined, the pKa is the pH at which an ionisable group is half protonated. As a reminder, the logP is a log measure of how a compound divides between an organic and an aqueous phase. A low value points to a more hydrophilic compound. As usually defined, the Tmax is the time from dosing to the highest level. With `O=C(CC(c1ccccc1)c1ccccc1)N1CCN(C(c2ccccc2)c2ccccc2)CC1` [Compound 1, 1-(4-benzhydrylpiperazin-1-yl)-3,3-diphenylpropan-1-one], the “solubility in propylene glycol, ethanol, and tetrahydrofuran (in words)” value in data set [1] was “soluble”. The solubility in data set [1] (acetone, organic solvent or mixture, read-out: solubility in acetone) is no more than 50000 µg/mL; in data set [1] (pH 6.5, pH of 6.5 in FaSSIF, read-out: solubility), 1.5 µg/mL (≈ 3.26 µM); in data set [1] (water, pH 1, simulated gastric fluid, pH of 1.0, read-out: solubility in water) it was 55 µg/mL (≈ 119 µM); in data set [1] (water, pH 6.5, aqueous buffer, pH of 6.5, read-out: solubility in water) it was 0.03 µg/mL (≈ 0.0651 µM); in data set [1] (water, pH 6.8, aqueous buffer, pH of 6.8, read-out: solubility in water), 0.2 to 2 µg/mL (≈ 0.434 to 4.34 µM). The “solubility in water (in words)” value in data set [1] (water) was “slightly soluble”. Further, the pKa in data set [2] came to 5.4. This compound had a logP in data set [3] of 2.6. This compound also came in with a hygroscopicity in data set [4] of 0.09%. For the same compound, in data set [5], the Tmax was less than 2 h. The compound also displayed a Tg in data set [6] of 41.6 °C. Also, in data set [7], the “AUC0-4 hr (dissolution)” value worked out at 8000 ng·h/mL. The “Tmax (dissolution)” value in data set [7] worked out at 2 h. Further, the “Cmax (dissolution)” value in data set [7] (37° C.) came out at 2645 ng/mL.
